# From ChEMBL document CHEMBL3885881, “DrugMatrix”
# Species on record: Rattus norvegicus
# Test: DrugMatrix - Regimen: Daily Repeat
# Type: toxicity, organism-based, Sprague-Dawley
# Set-up: regimen Daily Repeat, gender Male, age 6-8 weeks
# Conditions: in vivo, po, route oral GAVAGE, vehicle .5 % CMC; for ABSOLUTE BASOPHIL / ABSOLUTE EOSINOPHIL / ABSOLUTE LYMPHOCYTE / ABSOLUTE MONOCYTE / ABSOLUTE SEGMENTED NEUTROPHIL / BASOPHIL / EOSINOPHIL / ERYTHROCYTE COUNT / HEMATOCRIT / HEMOGLOBIN / LEUKOCYTE COUNT / LYMPHOCYTE / MEAN CORPUSCULAR HEMOGLOBIN / MEAN CORPUSCULAR HEMOGLOBIN CONCENTRATION / MEAN CORPUSCULAR VOLUME / MONOCYTE / NEUTROPHIL / NUCLEATED RED BLOOD CELLS / PLATELET COUNT: tissue Blood; for ALANINE AMINOTRANSFERASE / ALBUMIN / ALKALINE PHOSPHATASE / ASPARTATE AMINOTRANSFERASE / BLOOD UREA NITROGEN / CARBON DIOXIDE / CHLORIDE / CHOLESTEROL / CREATINE PHOSPHOKINASE / CREATININE / GLUCOSE / LACTATE DEHYDROGENASE / LIPASE / PHOSPHORUS / POTASSIUM / SODIUM / TOTAL BILIRUBIN / TOTAL PROTEIN / URIC ACID: tissue Plasma
# [1] = 0 mg/kg, 72 h, dose level Control, time 3 day
# [2] = 0 mg/kg, 120 h, dose level Control, time 5 day
# [3] = 1200 mg/kg, 72 h, dose level High, time 3 day
smiles,measurement,setting,value
CCC[C@@H]1C[C@@H](C(=O)N[C@@H]([C@H]2O[C@H](SC)[C@H](O)[C@@H](O)[C@H]2O)[C@@H](C)O)N(C)C1 [LINCOMYCIN],ABSOLUTE BASOPHIL,[1],0 CELLS/uL
same,ABSOLUTE EOSINOPHIL,[1],0 CELLS/uL
same,ABSOLUTE LYMPHOCYTE,[1],12269.67 CELLS/uL
same,ABSOLUTE MONOCYTE,[1],160.33 CELLS/uL
same,ABSOLUTE SEGMENTED NEUTROPHIL,[1],970 CELLS/uL
same,BASOPHIL,[1],0%
same,EOSINOPHIL,[1],0%
same,ERYTHROCYTE COUNT,[1],5.76 x10E6/uL
same,HEMATOCRIT,[1],36.57%
same,HEMOGLOBIN,[1],14.22 G/DL
same,LEUKOCYTE COUNT,[1],13.4 x10E3/uL
same,LYMPHOCYTE,[1],91.67%
same,MEAN CORPUSCULAR HEMOGLOBIN,[1],24.67 pg
same,MEAN CORPUSCULAR HEMOGLOBIN CONCENTRATION,[1],38.85 G/DL
same,MEAN CORPUSCULAR VOLUME,[1],63.52 fL
same,MONOCYTE,[1],1.17%
same,NEUTROPHIL,[1],7.17%
same,NUCLEATED RED BLOOD CELLS,[1],0.33 /100WBC
same,PLATELET COUNT,[1],1250.83 x10E3/uL
same,ALANINE AMINOTRANSFERASE,[1],49.17 u/L
same,ALBUMIN,[1],4.33 G/DL
same,ALKALINE PHOSPHATASE,[1],378.5 u/L
same,ASPARTATE AMINOTRANSFERASE,[1],82.17 u/L
same,BLOOD UREA NITROGEN,[1],15 mg/dL
same,CARBON DIOXIDE,[1],34.33 mmol/L
same,CHLORIDE,[1],99.17 MEQ/L
same,CHOLESTEROL,[1],71.17 mg/dL
same,CREATINE PHOSPHOKINASE,[1],258.67 u/L
same,CREATININE,[1],0.18 mg/dL
same,GLUCOSE,[1],142.67 mg/dL
same,LACTATE DEHYDROGENASE,[1],154.33 u/L
same,LIPASE,[1],9 u/L
same,PHOSPHORUS,[1],11.67 mg/dL
same,POTASSIUM,[1],7.13 MEQ/L
same,SODIUM,[1],142.22 MEQ/L
same,TOTAL BILIRUBIN,[1],0.18 mg/dL
same,TOTAL PROTEIN,[1],5.77 G/DL
same,URIC ACID,[1],1.55 mg/dL
same,ABSOLUTE BASOPHIL,[2],0 CELLS/uL
same,ABSOLUTE EOSINOPHIL,[2],23.33 CELLS/uL
same,ABSOLUTE LYMPHOCYTE,[2],14943.67 CELLS/uL
same,ABSOLUTE MONOCYTE,[2],32 CELLS/uL
same,ABSOLUTE SEGMENTED NEUTROPHIL,[2],1084.33 CELLS/uL
same,BASOPHIL,[2],0%
same,EOSINOPHIL,[2],0.17%
same,ERYTHROCYTE COUNT,[2],5.71 x10E6/uL
same,HEMATOCRIT,[2],35.28%
same,HEMOGLOBIN,[2],14.27 G/DL
same,LEUKOCYTE COUNT,[2],16.08 x10E3/uL
same,LYMPHOCYTE,[2],93%
same,MEAN CORPUSCULAR HEMOGLOBIN,[2],25.02 pg
same,MEAN CORPUSCULAR HEMOGLOBIN CONCENTRATION,[2],40.43 G/DL
same,MEAN CORPUSCULAR VOLUME,[2],61.82 fL
same,MONOCYTE,[2],0.17%
same,NEUTROPHIL,[2],6.67%
same,NUCLEATED RED BLOOD CELLS,[2],0.33 /100WBC
same,PLATELET COUNT,[2],1274 x10E3/uL
same,ALANINE AMINOTRANSFERASE,[2],54.17 u/L
same,ALBUMIN,[2],4.22 G/DL
same,ALKALINE PHOSPHATASE,[2],373.17 u/L
same,ASPARTATE AMINOTRANSFERASE,[2],81.83 u/L
same,BLOOD UREA NITROGEN,[2],16.67 mg/dL
same,CARBON DIOXIDE,[2],30.33 mmol/L
same,CHLORIDE,[2],99 MEQ/L
same,CHOLESTEROL,[2],71 mg/dL
same,CREATINE PHOSPHOKINASE,[2],273.5 u/L
same,CREATININE,[2],0.22 mg/dL
same,GLUCOSE,[2],141.83 mg/dL
same,LACTATE DEHYDROGENASE,[2],153.67 u/L
same,LIPASE,[2],10.33 u/L
same,PHOSPHORUS,[2],11.38 mg/dL
same,POTASSIUM,[2],7.08 MEQ/L
same,SODIUM,[2],142.75 MEQ/L
same,TOTAL BILIRUBIN,[2],0.18 mg/dL
same,TOTAL PROTEIN,[2],6.1 G/DL
same,URIC ACID,[2],1.67 mg/dL
same,ABSOLUTE BASOPHIL,[3],0 CELLS/uL
same,ABSOLUTE EOSINOPHIL,[3],0 CELLS/uL
same,ABSOLUTE LYMPHOCYTE,[3],14618 CELLS/uL
same,ABSOLUTE MONOCYTE,[3],0 CELLS/uL
same,ABSOLUTE SEGMENTED NEUTROPHIL,[3],1248.67 CELLS/uL
same,BASOPHIL,[3],0%
same,EOSINOPHIL,[3],0%
same,ERYTHROCYTE COUNT,[3],5.99 x10E6/uL
same,HEMATOCRIT,[3],37.8%
same,HEMOGLOBIN,[3],15 G/DL
same,LEUKOCYTE COUNT,[3],15.87 x10E3/uL
same,LYMPHOCYTE,[3],92.33%
same,MEAN CORPUSCULAR HEMOGLOBIN,[3],25.1 pg
same,MEAN CORPUSCULAR HEMOGLOBIN CONCENTRATION,[3],39.73 G/DL
same,MEAN CORPUSCULAR VOLUME,[3],63.2 fL
same,MONOCYTE,[3],0%
same,NEUTROPHIL,[3],7.67%
same,NUCLEATED RED BLOOD CELLS,[3],0 /100WBC
same,PLATELET COUNT,[3],1182.33 x10E3/uL
same,ALANINE AMINOTRANSFERASE,[3],58.67 u/L
same,ALBUMIN,[3],4.3 G/DL
same,ALKALINE PHOSPHATASE,[3],350.33 u/L
same,ASPARTATE AMINOTRANSFERASE,[3],86.33 u/L
same,BLOOD UREA NITROGEN,[3],17.33 mg/dL
same,CARBON DIOXIDE,[3],33.33 mmol/L
same,CHLORIDE,[3],99 MEQ/L
same,CHOLESTEROL,[3],100.67 mg/dL
same,CREATINE PHOSPHOKINASE,[3],190.67 u/L
same,CREATININE,[3],0.21 mg/dL
same,GLUCOSE,[3],155.33 mg/dL
same,LACTATE DEHYDROGENASE,[3],170.67 u/L
same,LIPASE,[3],9.67 u/L
same,PHOSPHORUS,[3],12.27 mg/dL
same,POTASSIUM,[3],7.02 MEQ/L
same,SODIUM,[3],145.6 MEQ/L
same,TOTAL BILIRUBIN,[3],0.23 mg/dL
same,TOTAL PROTEIN,[3],6.23 G/DL
same,URIC ACID,[3],1.33 mg/dL
